Data as given in patent US20150111852A1, “1-Di(sec-butyl)-phosphinoyl-pentane (dapa-2-5) as a topical agent” (priority 2013, published 2015).

Key:
[1] = tested on: mouth and throat; test: Sensory activity of ODT-C on volunteers (double-blind, modified ASHRAE scale); assay type: in vivo, human; conditions: for ODT-C test results (sensation and taste in words) / duration of cooling effect: 1.2 to 1.5 mg per ODT; for ODT-C test results (sensation and taste in words): 4 volunteers; for duration of cooling effect: ODT-C; for ASHRAE equivalent: peak heat abstraction sensation, modified ASHRAE scale neutral [0] to icy cold [-4]
Procedure: ODT-C. More experiments were conducted to find a smaller tablet, in the range of 40 to 60 mg, with a disintegration of <10 sec. These paraemters might achieve a better pharmacological effect. ODT-B was 100 mg in size and disintegrated in <20 sec. […] For example, to 1.5 g of DAPA-2-5 is added 1.5 g of absolute ethanol, followed by 2.0 g of Neusilin US2. The mixture is shaken or mixed in a Speedmixer at 500 rpm for 1 min. The sample is placed under a heat source and about 2 hr later, the sample size is re-weighed with the expectation that the ethanol has been evaporated and the sample now weights 3.5 g. This powder is free-flowing. • b. a sample of maltitol powder is prepared (Maltisorb® P200 from Roquette). • c. a sample of Prosolv® EasyTab is prepared (JRS Pharma, Rosenburg, Germany). • d. a blend of a. [2.80 g], b. [15.73 g] and c. [31.46 g] is prepared to make 1000 ODT tablets, each weighing 50 mg and containing 1.2 mg of DAPA-2-5. • e. the blend is first shaken by hand, then placed for 2 min in a SpeedMixer at 500 rpm. The blend is poured into the funnel of a New Single Punch Tablet Press Pill Making Machine Maker TDP-1-5 [available from Amazon.com] and the extruded tablets are collected.
ODT-C, described in Study 2, were tested for sensory properties on 4 volunteers, with at least 3 trials per compound and at 1.2 to 1.5 mg per ODT. The ODT was placed on the mid-line posterior dorsal surface of the tongue and sensory effects recorded for 30 min on a standardized form […]. The ODT were coded and administered on a double-blind basis. A modified ASHRAE scale of neutral, slightly cool [-1], cool [-2], cold [-3], and icy cold [-4] was used to rank the peak heat abstraction sensations in the mouth and throat. Other perceived effects, e.g. taste and duration, were also noted.

[2] = tested on: oropharynx; test: Chili-pepper sauce irritation test; assay type: in vivo, human; set-up: key: If there was no suppression of the irritant/tickling sensations of the sauce, the value was “0”; if there was some suppression, the value was “+”; if there was complete suppression, then the value was “++.”; conditions: ODT, sauce applied 30 min later; 6 to 8 trials per compound
Text: The “pain” component of inflammation includes irritation, itch, and discomfort and suppression of these endpoints is termed “anti-nociceptive”. To determine if a compound has anti-nociceptive activity, the Inventor has devised a modified capsaicin challenge method to evoke discomfort in the oropharyngx: the chili-pepper sauce irritation test. Chili-pepper sauce placed onto the posterior dorsal surface of the tongue evokes a tickling/irritant sensations in the oropharynx. The sensations associated with the chili pepper sauce are located in the back of the mouth and are clearly recognized and associated with irritation and a desire to clear the throat. In the chili-pepper sauce irritation test, the test compound is delivered using an ODT, as in Study 3, and 30 min later 0.2 to 0.25 mL of the sauce was applied onto the posterior dorsal surface of the tongue (with a syringe or a plastic stick). The chili pepper sauce used here is called Yank Sing® Chili Pepper Sauce (YS Gourmet Productions, Inc., PO Box 26189, San Francisco, Calif. 94126) and is a well-known condiment for use with dim sum (Chinese tea lunch). If there was no suppression of the irritant/tickling sensations of the sauce, the value was “0”; if there was some suppression, the value was “+”; and if there was complete suppression, then the value was “++.” For compounds that gave a ++ score, the irritative signals of the chili-pepper sauce are completely absent, yet the salty taste from the soy sauce of the condiment can still be readily tasted. A “++” result indicated suppression of the irritant effects of chili-pepper sauce. Numerical results are from 6 to 8 trials per compound.

[3] = biological target: T1, cloned hTRPM8 channel (encoded by the human TRPM8 gene, expressed in CHO cells) (Homo sapiens, UniProt Q7Z2W7); test: TRPM8 agonist FLIPR Fluo-8 calcium assay; assay type: cell-based; conditions: for EC50: CHO cells, Fluo-8, n=4 replicates
T1 construct: host or cells: CHO cells, stably transfected
T1 sequence (Q7Z2W7 whole entry): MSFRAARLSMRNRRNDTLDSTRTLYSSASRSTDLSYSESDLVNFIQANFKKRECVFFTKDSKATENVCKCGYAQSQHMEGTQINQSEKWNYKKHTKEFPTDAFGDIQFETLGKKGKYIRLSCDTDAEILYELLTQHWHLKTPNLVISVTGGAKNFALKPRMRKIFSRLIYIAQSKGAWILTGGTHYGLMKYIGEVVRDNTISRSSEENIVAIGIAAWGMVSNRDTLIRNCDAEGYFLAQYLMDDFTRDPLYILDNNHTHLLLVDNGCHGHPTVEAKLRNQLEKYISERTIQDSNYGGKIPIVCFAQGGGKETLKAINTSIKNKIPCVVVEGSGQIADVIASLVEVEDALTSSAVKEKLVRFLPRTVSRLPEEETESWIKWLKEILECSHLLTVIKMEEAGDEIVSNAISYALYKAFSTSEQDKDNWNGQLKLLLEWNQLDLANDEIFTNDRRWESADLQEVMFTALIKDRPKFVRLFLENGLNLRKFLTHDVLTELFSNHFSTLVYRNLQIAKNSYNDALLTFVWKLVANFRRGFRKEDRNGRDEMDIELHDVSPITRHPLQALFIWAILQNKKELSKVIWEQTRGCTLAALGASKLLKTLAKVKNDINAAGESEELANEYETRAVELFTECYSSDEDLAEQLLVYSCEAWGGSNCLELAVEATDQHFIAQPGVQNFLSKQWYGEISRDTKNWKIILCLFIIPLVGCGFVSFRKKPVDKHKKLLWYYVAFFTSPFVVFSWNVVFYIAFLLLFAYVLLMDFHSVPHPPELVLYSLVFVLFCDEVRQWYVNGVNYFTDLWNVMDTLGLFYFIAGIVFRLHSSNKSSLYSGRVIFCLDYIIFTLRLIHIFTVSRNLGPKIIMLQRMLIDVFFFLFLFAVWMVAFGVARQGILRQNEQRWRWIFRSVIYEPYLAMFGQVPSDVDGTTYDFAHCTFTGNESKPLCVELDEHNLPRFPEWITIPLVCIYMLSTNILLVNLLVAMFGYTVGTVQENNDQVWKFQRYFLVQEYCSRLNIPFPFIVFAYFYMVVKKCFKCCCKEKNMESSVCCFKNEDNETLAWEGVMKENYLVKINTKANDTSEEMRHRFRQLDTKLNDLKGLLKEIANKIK
Procedure: The in vitro effects of test compounds were evaluated on cloned hTRPM8 channel (encoded by the human TRPM8 gene, expressed in CHO cells) using a Fluo-8 calcium kit and a Fluorescence Imaging Plate Reader (FLIPR^TETRA™) instrument.
Test compounds and positive control solutions were prepared by diluting stock solutions in a HEPES-buffered physiological saline (HBPS) solution. The test compound and control formulations were loaded in polypropylene or glass-lined 384-well plates, and placed into the FLIPR instrument (Molecular Devices Corporation, Union City, Calif., USA). The test compounds were evaluated at 4 or 8 concentrations with n=4 replicates per determination. […] The test cells were Chinese Hamster Ovary (CHO) cells stably transfected with human TRPM8 cDNAs.
For the FLIPR^TETRA™ assay, cells were plated in 384-well black wall, flat clear-bottom microtiter plates (Type: BD Biocoat Poly-D-Lysine Multiwell Cell Culture Plate) at approximately 30,000 cells per well. Cells were incubated at 37° C. overnight to reach a near confluent monolayer appropriate for use in a fluorescence assay. The test procedure was to remove the growth media and to add 40 μL of HBPS containing Fluo-8 for 30 min at 37° C. 10 μL of test compound, vehicle, or control solutions in HBPS were added to each well and read for 4 min.
Concentration-response data were analyzed via the FLIPR Control software that is supplied with the FLIPR System (MDS-AT) and fitted to a Hill equation of the following form: […]
where: “Base” is the response at low concentrations of test compound; “Max” is the maximum response at high concentrations; “xhalf” is the EC50, the concentration of test compound producing half-maximal activation; and “rate” is the Hill coefficient. Nonlinear least squares fits were made assuming a simple one-to-one binding model.

[4] = tested on: oral cavity and pharyngeal surfaces; test: Sensory activity of ODT-A on volunteers; assay type: in vivo, human; conditions: 6 to 8 trials per compound
Procedure: ODT-A was prepared by dissolving the DAPA compound in absolute ethanol, adding a 80% mannitol-20% maltitol mixture of equal weight and then adding an equal volume of distilled water. The mixture was the stirred with a glass rod, and dispensed onto a piece of wax or parchment paper with a disposable plastic pipette. The viscous liquid drop formed was then dried under a heat source for at least 4 hr. The nominal dose of the API in ODT-A ranged from 1 to 3 mg/tablet. The dried tablets weighed on average 150 mg each and when on the dorsal surface of the tongue, rapidly dissolved completely in saliva and coated the oropharyngeal surface. These tablets were suitable for initial pilot studies, but were not uniform in size, were friable, especially in conditions of high ambient humidity, and were not readily amenable to further analytical evaluation.
Sensory Qualities of ODT on the Oral Cavity and Pharyngeal Surfaces The DAPA ODT of Study 2 were evaluated for sensory properties on volunteers. The ODT-A results [see table] are from 6 to 8 trials per compound in several experienced individuals familiar with sensory properties of “cooling agents”. The results of ODT-A will be discussed together with ODT-B and ODT-C.

[5] = tested on: throat; test: Cold water test after ODT-A (cold discomfort); assay type: in vivo, human; set-up: key: If the subject felt “normal coolness” in the throat, the value was “0”; if the water felt “excessively cold” on the throat, it was rated as “+”; if there was “aching cold/discomfort” on the throat, the ranking was “++”; conditions: ODT-A on the tongue, ice water drunk 10 min later
Procedure: After application of ODT-A there were sensations associated with heat abstraction of various intensity and duration. Of particular note was the sensation of “icy or painful” cold was felt with some compounds, but the effect was variable. To isolate this sensation more precisely and reduce variability, ODT-A was placed on the tongue and 10 min later the subject was instructed to drink a mouthful of water previously equilibrated with ice chips. If the subject felt “normal coolness” in the throat, the value was “0”; if the water felt “excessively cold” on the throat, it was rated as “+”; and if there was “aching cold/discomfort” on the throat, the ranking was “++”. The term “cold discomfort” was applied compounds that produced “++”, and this phenomenon could now be reliably defined and identified with the cold water test.

[6] = tested on: dorsal surface of the tongue; conditions: 6 subjects, filter paper 1×1 cm, 30 sec; cited from earlier work
[7] = tested on: oropharynx; test: Sensory effects and cold discomfort of compounds given orally in ODT (general evaluation); assay type: in vivo, human; conditions: menthol at a dose of 2 mg in an ODT; icilin dose not given
Procedure: The correlation between a chemical's potency at the TRPM8 receptor (measured by the EC50 μM) and potency to evoke sensory events in the oropharynx is complex.
When a test compound is applied to non-keratinizng bodily surfaces (e.g., oropharyngeal surface), it is possible to characterize the resulting sensations.
The sensations are akin to rapid drinking of cold water mixed and equilibrated with ice chips. The intense cold is further accentuated if the drink is acidified, for example, with lemonade. The sensations of dull and intense cold on the surface of the oropharynx can be described as painful, uncomfortable, and aversive. The term “icy cold” is used to describe these adverse intense cold sensations.
Together, these three types of sensations—“icy cold”, coldness in the chest, and systemic coldness—is termed “cold discomfort”. […] The ideal agent must have a circumscribed site of action, and the intensity of the sensation should not cause “icy cold”, coldness in the chest, or systemic chills.

[8] = biological target: T2, ASIC3 (acid-sensing) (Homo sapiens, UniProt Q9UHC3); test: Patch-clamp in transfected cells, ASIC3; assay type: cell-based; conditions: DAPA-2-5 at 5 μM; positive control amiloride
T2 construct: expressed in transfected cells
T2 sequence (Q9UHC3 1-531): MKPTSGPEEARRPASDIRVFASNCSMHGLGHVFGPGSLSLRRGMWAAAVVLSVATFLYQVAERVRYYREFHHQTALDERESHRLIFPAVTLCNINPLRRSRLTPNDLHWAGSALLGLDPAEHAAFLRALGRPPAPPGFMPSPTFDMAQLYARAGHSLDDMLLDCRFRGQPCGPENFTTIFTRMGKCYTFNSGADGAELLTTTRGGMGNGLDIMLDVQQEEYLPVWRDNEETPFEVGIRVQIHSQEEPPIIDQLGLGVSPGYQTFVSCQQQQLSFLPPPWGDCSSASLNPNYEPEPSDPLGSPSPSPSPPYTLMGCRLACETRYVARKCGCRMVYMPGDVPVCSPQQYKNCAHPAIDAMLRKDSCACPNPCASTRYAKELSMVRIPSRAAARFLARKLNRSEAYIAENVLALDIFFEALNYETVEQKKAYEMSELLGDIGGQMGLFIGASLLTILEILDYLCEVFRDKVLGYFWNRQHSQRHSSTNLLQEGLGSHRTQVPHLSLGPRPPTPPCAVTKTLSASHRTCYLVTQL

[9] = biological target: T3, hNav1.7 (sodium channels) (Homo sapiens, UniProt Q15858); test: Patch-clamp in transfected cells, hNav1.7; assay type: cell-based; conditions: DAPA-2-5 at 5 μM; positive control lidocaine
T3 construct: expressed in transfected cells
T3 sequence (Q15858 whole entry): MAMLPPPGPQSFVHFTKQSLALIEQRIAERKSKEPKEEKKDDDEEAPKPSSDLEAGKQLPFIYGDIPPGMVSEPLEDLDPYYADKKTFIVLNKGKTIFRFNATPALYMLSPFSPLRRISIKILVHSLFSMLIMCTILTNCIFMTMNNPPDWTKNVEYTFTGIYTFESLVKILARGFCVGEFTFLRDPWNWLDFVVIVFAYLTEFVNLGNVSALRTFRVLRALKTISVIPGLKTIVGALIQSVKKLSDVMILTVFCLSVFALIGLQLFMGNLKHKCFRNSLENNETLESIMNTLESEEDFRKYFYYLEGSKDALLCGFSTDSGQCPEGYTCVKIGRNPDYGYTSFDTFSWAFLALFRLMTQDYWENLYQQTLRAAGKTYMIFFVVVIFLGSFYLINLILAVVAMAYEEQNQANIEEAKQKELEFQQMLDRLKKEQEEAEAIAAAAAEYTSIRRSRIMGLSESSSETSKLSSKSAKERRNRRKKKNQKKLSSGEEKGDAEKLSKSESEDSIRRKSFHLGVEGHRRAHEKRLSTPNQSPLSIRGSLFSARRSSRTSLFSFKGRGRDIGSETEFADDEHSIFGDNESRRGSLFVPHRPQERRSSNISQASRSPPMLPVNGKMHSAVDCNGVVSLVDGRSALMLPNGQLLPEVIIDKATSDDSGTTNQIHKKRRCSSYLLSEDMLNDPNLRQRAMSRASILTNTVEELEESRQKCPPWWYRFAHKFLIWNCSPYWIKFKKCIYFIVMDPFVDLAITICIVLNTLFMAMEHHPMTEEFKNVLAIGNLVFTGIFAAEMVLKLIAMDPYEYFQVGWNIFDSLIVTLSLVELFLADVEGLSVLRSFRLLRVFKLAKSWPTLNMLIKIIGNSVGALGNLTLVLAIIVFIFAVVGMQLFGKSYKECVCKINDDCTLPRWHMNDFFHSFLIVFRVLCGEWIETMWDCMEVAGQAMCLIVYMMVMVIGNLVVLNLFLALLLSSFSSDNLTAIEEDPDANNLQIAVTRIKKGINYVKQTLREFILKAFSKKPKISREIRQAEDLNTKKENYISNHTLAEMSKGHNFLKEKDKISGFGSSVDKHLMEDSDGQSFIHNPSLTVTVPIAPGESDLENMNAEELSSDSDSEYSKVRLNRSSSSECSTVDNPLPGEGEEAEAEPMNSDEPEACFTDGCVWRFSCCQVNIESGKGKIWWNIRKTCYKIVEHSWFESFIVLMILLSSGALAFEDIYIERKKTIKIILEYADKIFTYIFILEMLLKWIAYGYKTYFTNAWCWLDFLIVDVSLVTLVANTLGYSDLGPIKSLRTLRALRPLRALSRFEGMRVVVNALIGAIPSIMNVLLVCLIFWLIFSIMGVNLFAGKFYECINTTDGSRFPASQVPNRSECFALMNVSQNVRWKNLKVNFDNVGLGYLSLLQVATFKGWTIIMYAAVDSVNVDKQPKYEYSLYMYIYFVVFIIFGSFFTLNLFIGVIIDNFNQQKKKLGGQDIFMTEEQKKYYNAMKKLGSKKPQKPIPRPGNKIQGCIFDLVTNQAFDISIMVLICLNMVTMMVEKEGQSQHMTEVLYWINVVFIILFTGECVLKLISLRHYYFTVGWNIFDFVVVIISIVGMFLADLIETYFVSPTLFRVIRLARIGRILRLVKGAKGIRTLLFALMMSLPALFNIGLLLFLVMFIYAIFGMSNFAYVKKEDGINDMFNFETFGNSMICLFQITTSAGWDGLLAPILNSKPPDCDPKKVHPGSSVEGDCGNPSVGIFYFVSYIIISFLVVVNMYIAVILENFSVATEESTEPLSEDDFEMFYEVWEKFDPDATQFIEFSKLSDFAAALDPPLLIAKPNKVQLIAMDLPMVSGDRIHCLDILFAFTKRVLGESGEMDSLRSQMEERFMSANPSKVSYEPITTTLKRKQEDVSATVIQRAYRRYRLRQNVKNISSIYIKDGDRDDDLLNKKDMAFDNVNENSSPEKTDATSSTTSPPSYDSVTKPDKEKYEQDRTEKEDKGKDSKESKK

Relative Potency to L-menthol [3] | Cold Discomfort [5] | Compound | ODT-C test results (sensation and taste in words) [1] | duration of cooling effect [1] [min] | ASHRAE equivalent [1] | Chili test [2] | Duration [4] [min] | Onset [4] [min] | Sensory Quality [4] | other results
0.7 | 0 | CCCCCP(=O)(C(C)C)C(C)C [DAPA-1-5, 1-Di(isopropyl)-phosphinoyl-pentane] | brief but intense cool | < 5 | −2.7 | ++ | 5 | 0.1 | cool | 
5.4 | + | CCCCCCCCP(=O)(C(C)C)C(C)C [DAPA-1-8, 1-Di(isopropyl)-phosphinoyl-octane] | strong unpleasant taste | ~15 | −3 | + | 27 | 1.2 | cool | 
0.3 | 0 | CCCCP(=O)(C(C)CC)C(C)CC (stereo not drawn) [DAPA-2-4, 1-Di(sec-butyl) phosphinoyl-butane] | pleasant cool, but transient effect | < 5 | −2.5 | 0 | 3 | 1 | brief cool | 
0.2 | 0 | CCCCCP(=O)(CC(C)C)CC(C)C [DAPA-3-1, 1-di(iso-butyl) phosphinoyl-pentane] |  |  |  | 0 | 0 |  | not active | EC50 [3]: 24 µM; Onset (min) [4]: not active
0.9 | 0 | CCC(C)P(=O)(CCC(C)C)C(C)CC (stereo not drawn) [DAPA-3-2, 1-Di(sec-butyl) phosphinoyl-3-methyl-butane] |  |  |  | 0 | 2 | 1 | brief cool | EC50 [3]: 4.2 µM
 |  | CC(C)[C@@H]1CC[C@@H](C)C[C@H]1O [Menthol, L-menthol, reference compound] |  |  |  |  |  |  |  | rank in TRPM8 potency among the 21 compounds tested [3]: 16; average threshold for cooling on the tongue [6]: 0.25 µg; sensory effects / side-effects in an ODT [7]: produced chest discomfort
 |  | N=C(N)NC(=O)c1nc(Cl)c(N)nc1N [amiloride, reference compound] |  |  |  |  |  |  |  | agonist or antagonist activity, ASIC3 [8]: active
 |  | O=C1NC(c2cccc([N+](=O)[O-])c2)=CCN1c1ccccc1O [icilin, reference compound] |  |  |  |  |  |  |  | rank in TRPM8 potency among the 21 compounds tested [3]: 4; sensory effects / side-effects in an ODT [7]: did not produce cooling in the chest or the desired sensations on the throat
 |  | CCN(CC)CC(=O)Nc1c(C)cccc1C [lidocaine, reference compound] |  |  |  |  |  |  |  | agonist or antagonist activity, hNav1.7 [9]: active
